Experimental data as given in ChEMBL document CHEMBL1148609, “Orally active purine-based inhibitors of the heat shock protein 90” (J Med Chem, 2006).

target: Heat shock protein HSP 90-alpha (Homo sapiens) (UniProt P07900); experiment: Hsp90 inhibition measured as HER-2 degradation in MCF-7 cells

SMILES	IC50
CCCCn1c(Cc2cc(OC)ccc2OC)nc2c(N)ncnc21	12000 nM
COc1ccc(I)c(Sc2nc3c(N)ncnc3n2CCCNC(C)(C)C)c1	140 nM
CCCCn1c(Cc2cc(OC)ccc2Cl)nc2c(N)ncnc21	20000 nM
CCC(CC)NCCCn1c(Sc2cc(OC)ccc2I)nc2c(N)ncnc21	210 nM
C#CCCCn1c(Sc2cc(OC)ccc2I)nc2c(N)nc(F)nc21	360 nM
CCCCn1c(Cc2cc(OC)ccc2Br)nc2c(N)ncnc21	8000 nM
COc1ccc(I)c(Sc2nc3c(N)ncnc3n2CCC=C(C)C)c1	370 nM
CCC(C)NCCCn1c(Sc2cc(OC)ccc2I)nc2c(N)ncnc21 (stereo unspecified)	210 nM
COc1ccc(I)c(Sc2nc3c(N)ncnc3n2CCCNC(C)C)c1	180 nM
CCCCn1c(Sc2cc(OC)ccc2OC)nc2c(N)ncnc21	3500 nM
CCCCn1c(Cc2cc(OC)ccc2I)nc2c(N)ncnc21	5000 nM
